Data as given in BindingDB's records for doi:10.1016/j.ejmech.2011.07.022 (Medical University of Warsaw, 2011).

Target: T1, 5-hydroxytryptamine receptor 1A (Rattus norvegicus, UniProt P19327)
T1 sequence (P19327 whole entry): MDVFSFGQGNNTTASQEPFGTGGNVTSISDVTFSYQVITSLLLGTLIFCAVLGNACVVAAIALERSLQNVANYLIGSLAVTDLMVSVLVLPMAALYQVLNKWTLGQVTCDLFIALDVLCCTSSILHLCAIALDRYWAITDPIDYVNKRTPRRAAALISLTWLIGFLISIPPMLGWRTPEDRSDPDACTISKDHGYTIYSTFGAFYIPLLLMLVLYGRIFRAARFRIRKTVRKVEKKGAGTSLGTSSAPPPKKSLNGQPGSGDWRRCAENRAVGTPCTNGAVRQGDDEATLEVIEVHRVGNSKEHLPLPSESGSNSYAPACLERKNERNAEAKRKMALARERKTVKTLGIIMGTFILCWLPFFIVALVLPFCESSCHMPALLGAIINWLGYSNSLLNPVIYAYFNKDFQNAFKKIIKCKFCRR
Test: Displacement of [3H]8OH-DPAT from 5HT1A in rat brain cerebral cortex after 15 mins by scintillation counting

With COc1ccc(Cl)cc1C(=O)NC1C[C@H]2CC[C@H](C1)N2Cc1ccco1 (stereo partly specified) the Ki was > 100 µM.
